Assay results reported in patent US20150284362A1, “CARBAZOLE-CONTAINING AMIDES, CARBAMATES, AND UREAS AS CRYPTOCHROME MODULATORS” (ReSet Therapeutics, Inc., priority 2014, published 2015).

Tests used:
[1] = system: C57/Bl6J DIO mice; experiment: 7 day dosing in diet-induced obesity (DIO) mouse model of type II diabetes; type: in vivo; conditions: 100 mg/kg PO QD 7 days
Text: (§1) Male C57/Bl6J DIO mice were obtained from The Jackson Laboratory (Sacramento, Calif.). […] Animals were accustomed to these conditions for at least 2 weeks before experimentation and used at approximately 24 weeks of age.
(§2) Significance was accepted when p<0.05.

[2] = system: core clock gene mRNAs in liver; experiment: Single dose at peak (ZT0) or nadir (ZT10) of Cry1, liver core clock gene mRNAs; type: in vivo, mouse; conditions: db/db mice; single dose 50 mg/kg at ZT0 or ZT10; liver 7.5 hours later
Experimental: For compounds that interact directly with the core clock mechanism, the time of dosing may be critical for maximizing their effects. […] The former (ZT0) is coincident with the peak of Cry1 and Bmal1 protein in mouse liver and the latter (ZT10) corresponds to the approximate nadir of Cry1 and Bmal1. Liver tissue was taken 7.5 hours later for each, and the samples were examined for core clock gene mRNAs by RT-qPCR.

[3] = system: C57/Bl6J DIO mice; experiment: Increasing dosages of Compound 72 over 7 days in diet-induced obesity (DIO) mouse model; type: in vivo; conditions: 10, 30, 100 mg/kg PO QD 7 days
Text: as §1, §2
Male C57/Bl6J DIO mice were obtained from The Jackson Laboratory (Sacramento, Calif.). […] Animals were accustomed to these conditions for at least 2 weeks before experimentation and used at approximately 26 weeks of age.

[4] = Pharmacokinetic analysis in ICR mice (plasma and liver); type: in vivo; conditions: male, plasma, po, mouse, 50 mg/kg P.O., Table 4, read-out: Total Plasma AUC, AUC (0-last)
Experimental: Male ICR mice (weighing 30-40 g, Charles River Laboratories) were used for the experiment with n=3 mice for each experimental group (27 mice total for the study). […] Blood and liver tissue were collected at the following time points after administration: 15, 30, 60, 90 minutes, 3, 6, 12 and 24 hours. A control group of animals (TO) was also sampled. Animals were euthanized with CO2 and the blood collected from the heart using cardiac puncture, transferred to an EDTA tube, and then centrifuged at 5400 rpm for 5 minutes at 4° C. The resultant plasma was frozen using dry ice and then stored at −80° C. until ready for assay. Liver tissue was removed from each animal, 0.5 g was collected in an eppendorff, frozen and submitted for pharmacokinetic measurement.

[5] = system: db/db mice; experiment: Increasing dosages of Compound 72 over 7 days in db/db mouse model of type II diabetes; type: in vivo; conditions: 10, 50, 100 mg/kg PO QD 7 days
Text: as §2

[6] = system: core clock gene mRNAs in liver; experiment: Four day study, liver core clock gene mRNA, ICR mice; type: in vivo, mouse; conditions: 50 mg/kg PO BID 4 days, ZT6
Experimental: Male ICR mice (weighing 30-35 g), obtained from Charles River Laboratories (Hollister, Calif.), were used for the experiment following at least 3 days of acclimation. Mice were dosed with vehicle (WFI or 10% Kolliphor) or compound (50 mg/kg, dose volume 5 mL/kg, PO) for 4 days BID (twice a day), beginning in the afternoon of the first day. The last dose of compound or vehicle was administered on the morning of harvest. On the day of harvest (6 hours following the final dose), mice were euthanized by CO2 asphyxiation and 50 mg of liver tissue was excised and placed in a tube containing 500 μl of RNA later.
E.Z.N.A.® HP Total RNA Isolation Kits (R6812-01 and the protocol described in the Manual, Revised 2010) were utilized to prepare and isolate RNA from the liver samples. To prepare the RNA samples, 10-30 mg of sample was removed from RNA-Later and placed in a 1.5 ml microfuge tube. […] The cleared supernatant was transferred by pipetting to a DNA Clearance Column Pre-inserted in a 2 mL Collection Tube. The assembled column was centrifuged at 13,000×g for 1 minute, and the flow-through was saved. An equal volume (700 μl) of 70% ethanol was added to the lysate and mixed. The sample was then applied to a HiBind RNA spin column placed into a 2 ml collection tube, which was centrifuged at 10,000×g for 60 seconds at room temperature. RNA Wash Buffer I (250 μl) was added by pipetting directly onto a new HiBind RNA column inserted in a 2 ml collection tube. The assembled column was centrifuged at 10,000×g for 60 seconds. The RNA column was placed into a new 2 ml collection tube. […] The column with bound RNA was incubated at room temperature (25-30° C.) for 15 minutes. RNA Wash Buffer I (500 μl) was added to the column and placed on a bench top for 2 minutes. After centrifuging at 10,000×g for 60 seconds, discarding the flow-through, 500 μl of RNA Wash Buffer II was added and centrifuged at 10,000×g for 60 seconds. Another 500 μl of RNA Wash Buffer II was added and the column assembly was centrifuged at 10,000×g for 60 seconds. The column was centrifuged for 2 minutes at maximum speed to completely dry the HiBind matrix. The column was placed in a clean 1.5 ml microcentrifuge tube and 40-70 μl of molecular biology grade water is added. After sitting for 1 minute, the column was centrifuged for 2 minutes at maximum speed to elute the RNA. The isolated RNA was collected into the collection tube.
RediPlate 96 RiboGreen RNA Quantification Kit (Invitrogen) RediPlate standard curve was prepared by transferring 20 μl reconstituted RNA standard to a RediPlate well reconstituted in 180 μl RediPlate TE buffer. For liver RNAs prepared from 30-100 mg of tissue using a kit similar to the Omega Bio-Tek HP Total RNA Kit and eluted in RNAse-free water in a volume of 50 μl (microliters), 5 μl of the total RNA is diluted in 195 μl of RediPlate TE buffer (1:40 dilution of RNA), mix. […] Alternatively, one can use the FlexStation 3 with Ex 488 nm and Em 525 nm and a Cutoff of 515 nm.

Structure (SMILES): O=C1NCCN1CC(O)Cn1c2ccc(F)cc2c2cc(F)ccc21 (stereo not shown) [Compound 72, 1-(3-(3,6-difluoro-9H-carbazol-9-yl)-2-hydroxypropyl)imidazolidin-2-one]
- OGTT glucose vs vehicle control group [1]: much lower than the vehicle control group
- impact on core clock gene mRNAs in liver, dosing at peak vs nadir [2]: greater relative impact on the clock mRNAs at the peak compared to the nadir
- OGTT glucose excursion following a glucose load [3]: reduction in glucose excursion
- AUC(0-t) [4]: 4160 ng·h/mL
- OGTT glucose excursion following a glucose load [5]: dose dependent effect on glucose excursion
- Cry2 transcripts in liver [6]: decrease
- liver Per2 expression [6]: suppression
